{"source": "patent US11203601B2", "about": "“Tricyclic compounds as glycogen synthase kinase 3 (GSK3) inhibitors and uses thereof” (The Broad Institute, Inc., priority 2017, dated 2021)", "assay_in_all_cases": "Carna kinome panel", "type_in_all_cases": "biochemical", "conditions_in_all_cases": "read-out: % Inhibition at 10 μM of the test compound", "key": {"[1]": {"biological_target": "DCAMKL2 (Homo sapiens (Human), UniProt Q8N568)"}, "[2]": {"biological_target": "BRSK1 (Homo sapiens (Human), UniProt Q8TDC3)"}, "[3]": {"biological_target": "NEK7 (Homo sapiens (Human), UniProt Q8TDX7)"}, "[4]": {"biological_target": "PKCθ (Homo sapiens (Human), UniProt Q04759)"}, "[5]": {"biological_target": "YES(T348I) (Homo sapiens (Human), UniProt P07947, T348I)"}, "[6]": {"biological_target": "p38γ (Homo sapiens (Human), UniProt P53778)"}, "[7]": {"biological_target": "FER (Homo sapiens (Human), UniProt P16591)"}, "[8]": {"biological_target": "MUSK (Homo sapiens (Human), UniProt O15146)"}, "[9]": {"biological_target": "ALK (Homo sapiens (Human), UniProt Q9UM73)"}, "[10]": {"biological_target": "PLK2 (Homo sapiens (Human), UniProt Q9NYY3)"}, "[11]": {"biological_target": "MNK2 (Homo sapiens (Human), UniProt Q9HBH9)"}, "[12]": {"biological_target": "PLK3 (Homo sapiens (Human), UniProt Q9H4B4)"}, "[13]": {"biological_target": "DYRK1B (Homo sapiens (Human), UniProt Q9Y463)", "experimental": "(§1) Briefly, a selection of compounds was screened against a panel of kinases at a single concentration of 10 μM. […] This was completed using one of two assays, depending on the kinase being examined: 1) IMAP Assay. A solution of 4× inhibitor, 4× substrate/ATP/metal solution and 2× kinase solution was prepared with assay buffer (20 mM HEPES, 0.01% Tween-20, 2 mM DTT, pH 7.4) and mixed, then incubated in 384-well black plates for 1 hour at room temperature. The IMAP binding reagent (IMAP Screening Express kit; Molecular Devices) was added to each well and incubated for 30 minutes. […] 2) Off-Chip Mobility Shift Assay (MSA). A solution of 4× inhibitor, 4× substrate/ATP/metal solution and 2× kinase solution was prepared with assay buffer (20 mM HEPES, 0.01% Triton X-100, 2 mM DTT, pH 7.5) and mixed, then incubated in 384-well plates for 1 or 5 hours depending on the kinase, at room temperature. Termination buffer (QuickScout Screening assist MSA; Carna Biosciences) was added to each well. The entire reaction mixture was then applied to a LabChip3000 system (Caliper Life Science), and the product and substrate peptide peaks were separated and quantified. […] The entire reaction mixture was then applied to a LabChip3000 system (Caliper Life Science), and the product and substrate peptide peaks were separated and quantified."}, "[14]": {"biological_target": "SRC (Homo sapiens (Human), UniProt P12931)"}, "[15]": {"biological_target": "ABL(E255K) (Homo sapiens (Human), UniProt P00519, E255K)", "sequence (P00519 whole entry E255K)": "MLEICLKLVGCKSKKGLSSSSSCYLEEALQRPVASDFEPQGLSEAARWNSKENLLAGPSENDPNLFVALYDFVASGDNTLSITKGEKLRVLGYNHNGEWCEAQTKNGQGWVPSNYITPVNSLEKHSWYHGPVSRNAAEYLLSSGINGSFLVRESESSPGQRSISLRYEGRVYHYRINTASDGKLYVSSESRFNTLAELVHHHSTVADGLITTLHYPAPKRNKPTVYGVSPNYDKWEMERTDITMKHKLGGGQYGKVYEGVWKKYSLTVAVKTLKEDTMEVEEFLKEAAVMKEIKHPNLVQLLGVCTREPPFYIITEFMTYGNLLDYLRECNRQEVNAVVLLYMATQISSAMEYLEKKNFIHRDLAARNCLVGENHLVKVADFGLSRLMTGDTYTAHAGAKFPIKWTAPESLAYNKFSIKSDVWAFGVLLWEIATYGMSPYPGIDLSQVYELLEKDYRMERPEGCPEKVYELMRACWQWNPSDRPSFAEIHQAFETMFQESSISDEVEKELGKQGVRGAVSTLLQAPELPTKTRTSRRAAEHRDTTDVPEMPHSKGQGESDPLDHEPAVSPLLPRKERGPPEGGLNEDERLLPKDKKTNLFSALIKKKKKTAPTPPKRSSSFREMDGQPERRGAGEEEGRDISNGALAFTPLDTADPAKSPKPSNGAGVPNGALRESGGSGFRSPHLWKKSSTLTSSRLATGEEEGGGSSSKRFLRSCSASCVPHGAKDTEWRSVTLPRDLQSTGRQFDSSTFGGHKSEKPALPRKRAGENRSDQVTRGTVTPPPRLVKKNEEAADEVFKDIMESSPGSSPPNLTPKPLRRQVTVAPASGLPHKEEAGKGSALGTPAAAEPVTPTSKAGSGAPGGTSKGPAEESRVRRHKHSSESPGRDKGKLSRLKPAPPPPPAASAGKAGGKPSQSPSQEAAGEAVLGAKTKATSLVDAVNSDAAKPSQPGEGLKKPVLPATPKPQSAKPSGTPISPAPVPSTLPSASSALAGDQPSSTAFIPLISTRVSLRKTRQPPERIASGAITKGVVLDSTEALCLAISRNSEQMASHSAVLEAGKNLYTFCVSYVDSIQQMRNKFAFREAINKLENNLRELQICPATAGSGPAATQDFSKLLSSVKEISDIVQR"}, "[16]": {"biological_target": "CLK3 (Homo sapiens (Human), UniProt P49761)"}, "[17]": {"biological_target": "MARK1 (Homo sapiens (Human), UniProt Q9P0L2)"}, "[18]": {"biological_target": "EPHA2 (Homo sapiens (Human), UniProt P29317)"}, "[19]": {"biological_target": "PAK4 (Homo sapiens (Human), UniProt O96013)", "sequence (O96013 whole entry)": "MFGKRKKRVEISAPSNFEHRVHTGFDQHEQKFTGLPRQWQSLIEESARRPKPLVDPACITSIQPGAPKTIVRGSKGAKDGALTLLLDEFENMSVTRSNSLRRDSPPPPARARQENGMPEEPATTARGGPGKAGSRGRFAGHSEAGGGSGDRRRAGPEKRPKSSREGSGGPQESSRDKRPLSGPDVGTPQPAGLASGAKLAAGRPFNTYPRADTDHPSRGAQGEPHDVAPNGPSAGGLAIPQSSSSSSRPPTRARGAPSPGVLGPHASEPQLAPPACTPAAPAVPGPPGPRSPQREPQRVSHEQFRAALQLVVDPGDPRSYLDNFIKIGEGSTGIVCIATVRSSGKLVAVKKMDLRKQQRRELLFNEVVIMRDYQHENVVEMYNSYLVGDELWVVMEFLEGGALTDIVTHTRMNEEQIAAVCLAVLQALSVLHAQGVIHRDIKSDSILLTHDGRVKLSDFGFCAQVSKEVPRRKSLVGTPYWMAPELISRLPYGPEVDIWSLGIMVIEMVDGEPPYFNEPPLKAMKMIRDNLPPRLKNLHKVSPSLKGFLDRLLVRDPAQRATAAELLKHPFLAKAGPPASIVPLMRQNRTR"}, "[20]": {"biological_target": "TRKB (Homo sapiens (Human), UniProt Q16620)"}, "[21]": {"biological_target": "MINK (Homo sapiens (Human), UniProt Q8N4C8)"}, "[22]": {"biological_target": "PKCε (Homo sapiens (Human), UniProt Q02156)"}, "[23]": {"biological_target": "RET(Y791F) (Homo sapiens (Human), UniProt P07949, Y791F)", "sequence (P07949 29-1114 Y791F)": "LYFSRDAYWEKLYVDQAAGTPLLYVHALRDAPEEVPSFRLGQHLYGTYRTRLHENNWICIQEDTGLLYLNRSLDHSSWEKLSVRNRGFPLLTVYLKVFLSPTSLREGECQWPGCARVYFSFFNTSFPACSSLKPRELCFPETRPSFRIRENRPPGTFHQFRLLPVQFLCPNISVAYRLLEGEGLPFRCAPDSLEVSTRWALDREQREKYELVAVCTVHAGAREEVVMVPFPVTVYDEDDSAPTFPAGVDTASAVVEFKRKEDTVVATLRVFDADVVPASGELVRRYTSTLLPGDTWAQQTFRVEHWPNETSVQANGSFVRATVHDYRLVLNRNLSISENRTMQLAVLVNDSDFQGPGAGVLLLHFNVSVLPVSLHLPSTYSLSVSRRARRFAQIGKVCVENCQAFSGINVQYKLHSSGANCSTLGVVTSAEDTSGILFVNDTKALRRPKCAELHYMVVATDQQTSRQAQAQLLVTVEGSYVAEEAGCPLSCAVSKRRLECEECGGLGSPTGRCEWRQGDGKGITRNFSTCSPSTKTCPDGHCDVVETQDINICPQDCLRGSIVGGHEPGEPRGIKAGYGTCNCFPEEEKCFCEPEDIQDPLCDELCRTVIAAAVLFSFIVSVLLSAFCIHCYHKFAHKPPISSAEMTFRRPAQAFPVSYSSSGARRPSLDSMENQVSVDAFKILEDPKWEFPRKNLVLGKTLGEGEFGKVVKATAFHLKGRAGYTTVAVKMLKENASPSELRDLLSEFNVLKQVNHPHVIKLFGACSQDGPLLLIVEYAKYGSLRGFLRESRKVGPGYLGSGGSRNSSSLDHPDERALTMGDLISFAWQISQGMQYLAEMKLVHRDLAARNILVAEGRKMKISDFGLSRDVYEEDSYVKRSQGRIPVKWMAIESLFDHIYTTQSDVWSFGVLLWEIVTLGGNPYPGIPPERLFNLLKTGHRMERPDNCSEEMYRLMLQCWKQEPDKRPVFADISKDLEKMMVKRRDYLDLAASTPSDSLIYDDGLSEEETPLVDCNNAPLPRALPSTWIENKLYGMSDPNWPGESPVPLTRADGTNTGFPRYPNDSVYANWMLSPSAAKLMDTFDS"}, "[24]": {"biological_target": "CAMK1α (Homo sapiens (Human), UniProt Q14012)"}, "[25]": {"biological_target": "MLK2_ Cascade (Homo sapiens (Human), UniProt Q02779)"}, "[26]": {"biological_target": "MRCKα (Homo sapiens (Human), UniProt Q5VT25)"}, "[27]": {"biological_target": "AMPKα1/β1/γ1 (Homo sapiens (Human), UniProt Q13131)", "sequence (Q13131 whole entry, looked up)": "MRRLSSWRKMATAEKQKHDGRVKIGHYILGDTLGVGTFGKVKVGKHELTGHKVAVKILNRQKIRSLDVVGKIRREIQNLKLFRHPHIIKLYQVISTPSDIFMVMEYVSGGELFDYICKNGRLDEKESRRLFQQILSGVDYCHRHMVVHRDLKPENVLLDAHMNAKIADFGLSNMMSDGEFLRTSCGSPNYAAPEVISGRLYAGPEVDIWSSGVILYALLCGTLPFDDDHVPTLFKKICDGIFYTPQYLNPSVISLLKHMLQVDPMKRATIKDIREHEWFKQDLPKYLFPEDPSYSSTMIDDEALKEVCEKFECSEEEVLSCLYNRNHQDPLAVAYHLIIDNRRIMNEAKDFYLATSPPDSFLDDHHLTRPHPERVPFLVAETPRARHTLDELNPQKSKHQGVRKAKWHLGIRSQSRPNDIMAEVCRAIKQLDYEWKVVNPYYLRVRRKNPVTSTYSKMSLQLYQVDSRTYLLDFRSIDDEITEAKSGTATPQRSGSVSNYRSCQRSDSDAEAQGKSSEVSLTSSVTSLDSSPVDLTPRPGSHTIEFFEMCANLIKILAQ", "sequence (Q9Y478 whole entry partner, looked up)": "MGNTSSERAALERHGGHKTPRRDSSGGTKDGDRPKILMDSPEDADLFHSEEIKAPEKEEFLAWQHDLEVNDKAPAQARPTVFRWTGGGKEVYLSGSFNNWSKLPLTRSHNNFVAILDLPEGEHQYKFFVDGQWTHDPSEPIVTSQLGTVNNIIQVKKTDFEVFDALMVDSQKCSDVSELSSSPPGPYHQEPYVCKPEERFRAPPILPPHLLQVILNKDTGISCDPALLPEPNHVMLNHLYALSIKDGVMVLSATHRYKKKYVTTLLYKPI", "sequence (P54619 whole entry partner, looked up)": "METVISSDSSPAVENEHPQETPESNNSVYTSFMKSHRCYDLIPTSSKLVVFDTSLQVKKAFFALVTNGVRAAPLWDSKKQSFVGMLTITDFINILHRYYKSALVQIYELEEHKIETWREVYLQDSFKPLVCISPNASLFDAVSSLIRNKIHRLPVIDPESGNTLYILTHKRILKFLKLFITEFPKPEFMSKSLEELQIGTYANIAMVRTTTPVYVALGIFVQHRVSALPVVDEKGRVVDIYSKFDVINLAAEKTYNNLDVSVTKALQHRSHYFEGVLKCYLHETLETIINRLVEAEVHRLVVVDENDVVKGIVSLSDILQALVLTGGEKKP"}, "[28]": {"biological_target": "HIPK4 (Homo sapiens (Human), UniProt Q8NE63)"}, "[29]": {"biological_target": "MSK1 (Homo sapiens (Human), UniProt O75582)", "sequence (O75582 whole entry)": "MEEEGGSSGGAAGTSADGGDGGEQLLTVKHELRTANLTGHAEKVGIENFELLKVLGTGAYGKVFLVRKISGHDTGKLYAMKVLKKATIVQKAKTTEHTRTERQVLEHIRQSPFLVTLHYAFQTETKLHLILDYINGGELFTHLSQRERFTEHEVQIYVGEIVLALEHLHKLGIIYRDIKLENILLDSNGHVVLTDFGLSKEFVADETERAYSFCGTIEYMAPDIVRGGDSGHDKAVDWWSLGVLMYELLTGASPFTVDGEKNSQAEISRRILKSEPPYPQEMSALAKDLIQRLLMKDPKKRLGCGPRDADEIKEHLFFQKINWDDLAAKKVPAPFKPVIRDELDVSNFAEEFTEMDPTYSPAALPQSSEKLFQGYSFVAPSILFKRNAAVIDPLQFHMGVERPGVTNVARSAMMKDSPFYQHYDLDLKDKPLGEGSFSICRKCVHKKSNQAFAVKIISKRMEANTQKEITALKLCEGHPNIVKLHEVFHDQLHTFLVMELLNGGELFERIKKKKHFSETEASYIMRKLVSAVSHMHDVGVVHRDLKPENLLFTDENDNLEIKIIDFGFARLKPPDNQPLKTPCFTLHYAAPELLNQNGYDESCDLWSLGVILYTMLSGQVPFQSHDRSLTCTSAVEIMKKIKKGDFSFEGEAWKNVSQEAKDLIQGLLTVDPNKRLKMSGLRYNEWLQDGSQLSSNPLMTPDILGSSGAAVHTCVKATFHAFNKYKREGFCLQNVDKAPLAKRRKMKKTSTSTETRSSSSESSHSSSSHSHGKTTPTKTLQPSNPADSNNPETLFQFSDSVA"}, "[30]": {"biological_target": "RET(G691S) (Homo sapiens (Human), UniProt P07949, G691S)", "sequence (P07949 29-1114 G691S)": "as the sequence (P07949 29-1114 Y791F) above, with G663S, F763Y counted along it"}, "[31]": {"biological_target": "AMPKα2/β1/γ1 (Homo sapiens (Human), UniProt P54646)"}, "[32]": {"biological_target": "SYK (Homo sapiens (Human), UniProt P43405)"}, "[33]": {"biological_target": "RET (Homo sapiens (Human), UniProt P07949)", "sequence (P07949 29-1114)": "as the sequence (P07949 29-1114 Y791F) above, with F763Y counted along it"}, "[34]": {"biological_target": "EPHA1 (Homo sapiens (Human), UniProt P21709)"}, "[35]": {"biological_target": "CGK2 (Homo sapiens (Human), UniProt Q13237)"}, "[36]": {"biological_target": "LTK (Homo sapiens (Human), UniProt P29376)", "experimental": "as §1"}, "[37]": {"biological_target": "Erk2 (Homo sapiens (Human), UniProt P28482)"}, "[38]": {"biological_target": "p38α (Homo sapiens (Human), UniProt Q16539)"}, "[39]": {"biological_target": "SPHK2 (Homo sapiens (Human), UniProt Q9NRA0)"}, "[40]": {"biological_target": "PKCι (Homo sapiens (Human), UniProt P41743)"}, "[41]": {"biological_target": "HER4 (Homo sapiens (Human), UniProt Q15303)"}}, "data": [{"smiles": "CCC1(c2ccccc2)C2=C(CC(C)(C)CC2=O)Nc2ncsc21", "note": "(centres unmarked) [Compound 1, 9-Ethyl-6,6-dimethyl-9-phenyl-5,6,7,9-tetrahydrothiazolo[4,5-b]quinolin-8(4H)-one]", "values": [{"measurement": "inhibition at 10 µM", "setting": "[1]", "result": -7.6, "unit": "%"}, {"measurement": "inhibition at 10 µM", "setting": "[2]", "result": -12.9, "unit": "%"}, {"measurement": "inhibition at 10 µM", "setting": "[3]", "result": -3.9, "unit": "%"}, {"measurement": "inhibition at 10 µM", "setting": "[4]", "result": -11.2, "unit": "%"}, {"measurement": "inhibition at 10 µM", "setting": "[5]", "result": 13.5, "unit": "%"}, {"measurement": "inhibition at 10 µM", "setting": "[6]", "result": 8.9, "unit": "%"}, {"measurement": "inhibition at 10 µM", "setting": "[7]", "result": -7.5, "unit": "%"}, {"measurement": "inhibition at 10 µM", "setting": "[8]", "result": 0, "unit": "%"}, {"measurement": "inhibition at 10 µM", "setting": "[9]", "result": -3.1, "unit": "%"}, {"measurement": "inhibition at 10 µM", "setting": "[10]", "result": 1.7, "unit": "%"}, {"measurement": "inhibition at 10 µM", "setting": "[11]", "result": -2.8, "unit": "%"}, {"measurement": "inhibition at 10 µM", "setting": "[12]", "result": 3.4, "unit": "%"}, {"measurement": "inhibition at 10 µM", "setting": "[13]", "result": -18.1, "unit": "%"}, {"measurement": "inhibition at 10 µM", "setting": "[14]", "result": -2.2, "unit": "%"}, {"measurement": "inhibition at 10 µM", "setting": "[15]", "result": -1.4, "unit": "%"}, {"measurement": "inhibition at 10 µM", "setting": "[16]", "result": 3.9, "unit": "%"}, {"measurement": "inhibition at 10 µM", "setting": "[17]", "result": -1.7, "unit": "%"}, {"measurement": "inhibition at 10 µM", "setting": "[18]", "result": -0.3, "unit": "%"}, {"measurement": "inhibition at 10 µM", "setting": "[19]", "result": 17, "unit": "%"}, {"measurement": "inhibition at 10 µM", "setting": "[20]", "result": 16, "unit": "%"}, {"measurement": "inhibition at 10 µM", "setting": "[21]", "result": 1.5, "unit": "%"}, {"measurement": "inhibition at 10 µM", "setting": "[22]", "result": -0.7, "unit": "%"}, {"measurement": "inhibition at 10 µM", "setting": "[23]", "result": -1.6, "unit": "%"}, {"measurement": "inhibition at 10 µM", "setting": "[24]", "result": -2.6, "unit": "%"}, {"measurement": "inhibition at 10 µM", "setting": "[25]", "result": 16.1, "unit": "%"}, {"measurement": "inhibition at 10 µM", "setting": "[26]", "result": 3.3, "unit": "%"}, {"measurement": "inhibition at 10 µM", "setting": "[27]", "result": 7.6, "unit": "%"}, {"measurement": "inhibition at 10 µM", "setting": "[28]", "result": -12.5, "unit": "%"}, {"measurement": "inhibition at 10 µM", "setting": "[29]", "result": -1, "unit": "%"}, {"measurement": "inhibition at 10 µM", "setting": "[30]", "result": 2.8, "unit": "%"}, {"measurement": "inhibition at 10 µM", "setting": "[31]", "result": -4.1, "unit": "%"}, {"measurement": "inhibition at 10 µM", "setting": "[32]", "result": -5.8, "unit": "%"}, {"measurement": "inhibition at 10 µM", "setting": "[33]", "result": -1.9, "unit": "%"}, {"measurement": "inhibition at 10 µM", "setting": "[34]", "result": 2, "unit": "%"}, {"measurement": "inhibition at 10 µM", "setting": "[35]", "result": -1.6, "unit": "%"}, {"measurement": "inhibition at 10 µM", "setting": "[36]", "result": 3.1, "unit": "%"}, {"measurement": "inhibition at 10 µM", "setting": "[37]", "result": 0.5, "unit": "%"}, {"measurement": "inhibition at 10 µM", "setting": "[38]", "result": 1.1, "unit": "%"}, {"measurement": "inhibition at 10 µM", "setting": "[39]", "result": -0.8, "unit": "%"}, {"measurement": "inhibition at 10 µM", "setting": "[40]", "result": -2.7, "unit": "%"}, {"measurement": "inhibition at 10 µM", "setting": "[41]", "result": -4, "unit": "%"}]}]}
